Assay results: PubChem BioAssay (NCI)
Where “and” joins values, the source holds several entries; their conditions need not be identical. Equal entries are not always repeated.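 Five compound concentrations were applied to cells in 96-well plates for 48 hours; endpoints were derived by simple linear interpolation of the resulting dose-response curve. At the GI50, growth is halved. Definition used: TGI = concentration required for complete inhibition of growth.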

Assays:
Assay in all cases: inhibition of tumour cell growth, NCI panel, 48 h
[1] = test system: COLO 205 colon
[2] = test system: HCC-2998 colon
[3] = test system: SF-268 CNS
[4] = test system: PC-3 prostate
[5] = test system: HOP-92 NSCLC
[6] = test system: SK-MEL-2 melanoma
[7] = test system: 786-0 renal
[8] = test system: TK-10 renal
[9] = test system: NCI/ADR-RES ovarian
[10] = test system: A498 renal

Structure (SMILES): CCc1nc2cc(/C=C/C(=O)NO)c(F)cc2c(=O)n1CCc1ccccc1
- GI50 [1]: 0.497 µM
- TGI [1]: 3.14 µM
- GI50 [2]: 1.57 µM
- TGI [2]: 11.3 µM
- GI50 [3]: 0.829 µM
- TGI [3]: 5.27 µM
- GI50 [4]: 3.96 µM
- TGI [4]: 75.6 µM
- GI50 [5]: 2.51 µM
- TGI [5]: 8.94 µM
- GI50 [6]: 2.64 µM
- TGI [6]: 9.37 µM
- GI50 [7]: 1.7 µM
- TGI [7]: 4.49 µM
- GI50 [8]: 0.881 µM
- TGI [8]: 5.49 µM
- GI50 [9]: 0.227 µM
- TGI [9]: 2.54 µM
- GI50 [10]: 1.02 µM
- TGI [10]: 3.39 µM

Structure (SMILES): COc1ccc(-c2ccc(=O)oc2-c2cc(OC)c(OC)c(OC)c2)cc1O
- GI50 [1]: 2.21 µM
- TGI [1]: > 37.5 µM
- GI50 [2]: 0.0379 µM
- TGI [2]: 0.426 µM
- GI50 [3]: 0.0606 µM
- TGI [3]: > 34.8 µM
- GI50 [4]: 0.0183 µM
- TGI [4]: > 100 µM
- TGI [5]: > 100 µM
- GI50 [6]: 0.315 µM
- TGI [6]: > 100 µM
- GI50 [7]: < 0.0228 µM
- TGI [7]: 13.9 µM
- GI50 [8]: 62.3 µM
- TGI [8]: > 100 µM
- GI50 [9]: 0.036 µM
- TGI [9]: > 100 µM
- GI50 [10]: 0.0315 µM
- TGI [10]: > 77.6 µM

Structure (SMILES): COc1cc2c(cc1OCCN1C(=O)c3cccc4cccc(c34)C1=O)N=C[C@@H]1CCCN1C2=O
- GI50 [1]: 14.9 µM
- TGI [1]: 15.1 µM and 30.6 µM
- GI50 [2]: 14.5 µM
- TGI [2]: 15.6 µM and 27.6 µM
- TGI [3]: 15.3 µM
- GI50 [4]: 15 µM
- TGI [4]: 13.6 µM and 28.2 µM
- GI50 [5]: 19.5 µM
- TGI [5]: 17.3 µM and 55.4 µM
- GI50 [6]: 16.6 µM
- TGI [6]: 14.5 µM and 32.7 µM
- GI50 [7]: 16.5 µM
- TGI [7]: 14.7 µM and 33.9 µM
- TGI [8]: 14.8 µM
- GI50 [9]: 22.5 µM
- TGI [9]: 45.8 µM and 56.3 µM
- GI50 [10]: 19.6 µM
- TGI [10]: 16.6 µM and 42.8 µM

Structure (SMILES): Cc1ccc2nc(NC(=O)CSC(=S)N3CCN(Cc4ccccc4)CC3)sc2c1
- GI50 [1]: > 100 µM
- TGI [1]: > 100 µM
- GI50 [2]: > 100 µM
- TGI [2]: > 100 µM
- GI50 [3]: > 100 µM
- TGI [3]: > 100 µM
- GI50 [4]: > 100 µM
- TGI [4]: > 100 µM
- GI50 [5]: 4.05 µM
- TGI [5]: > 100 µM
- GI50 [6]: > 100 µM
- TGI [6]: > 100 µM
- GI50 [7]: > 100 µM
- TGI [7]: > 100 µM
- GI50 [8]: > 100 µM
- TGI [8]: > 100 µM
- GI50 [9]: > 100 µM
- TGI [9]: > 100 µM
- GI50 [10]: > 100 µM
- TGI [10]: > 100 µM

Structure (SMILES): Cc1cc(Cl)ccc1OCC(=O)Oc1c(Cl)c(Cl)c(Cl)c(Cl)c1Cl
- TGI [1]: 78 µM
- TGI [2]: 48.9 µM
- TGI [3]: > 100 µM
- TGI [4]: 80.1 µM
- TGI [5]: 40 µM
- TGI [6]: 67.7 µM
- TGI [7]: 85.5 µM
- TGI [8]: 69.1 µM
- TGI [9]: 67.6 µM
- TGI [10]: 62.9 µM

Structure (SMILES): COc1ccc(S(=O)(=O)N2CCCCC2)cc1NC(=O)c1[nH]c(C)c2c1CCCCC2=O
- GI50 [1]: 1.71 µM
- TGI [1]: 26.4 µM
- GI50 [2]: 1.73 µM
- TGI [2]: 11.1 µM
- GI50 [3]: 7.91 µM
- TGI [3]: > 100 µM
- GI50 [4]: 2.6 µM
- TGI [4]: > 100 µM
- GI50 [5]: 0.59 µM
- TGI [5]: 48.6 µM
- GI50 [6]: 2.4 µM
- TGI [6]: 31 µM
- GI50 [7]: 1.06 µM
- TGI [7]: > 100 µM
- GI50 [8]: 0.658 µM
- TGI [8]: 38.1 µM
- GI50 [9]: 3.67 µM
- TGI [9]: > 100 µM
- GI50 [10]: 1.08 µM
- TGI [10]: 3.98 µM

Structure (SMILES): CNC1=C(Br)C(=O)C2=C(C1=O)C1C3=C(C(=O)C=CC3=O)C2c2ccccc21 (stereo unspecified)
- GI50 [1]: 4.07 µM
- TGI [1]: 35.4 µM
- GI50 [2]: 3.74 µM
- TGI [2]: 11.4 µM
- GI50 [3]: 2.97 µM
- TGI [3]: > 29.4 µM
- GI50 [4]: 1.38 µM
- GI50 [5]: 1.91 µM
- TGI [5]: 4.19 µM
- GI50 [6]: 11 µM
- TGI [6]: > 28.4 µM
- GI50 [7]: 2.12 µM
- TGI [7]: 4.57 µM
- GI50 [8]: 10.8 µM
- TGI [8]: 34.4 µM
- GI50 [9]: 4.68 µM
- TGI [9]: 13.4 µM
- GI50 [10]: 24.9 µM
- TGI [10]: 40.7 µM

Structure (SMILES): CC(=O)OC1CC(C)c2c1ncnc2N1CCN(C(=O)OC(C)(C)C)CC1 (stereo unspecified)
- GI50 [1]: 38.5 µM
- TGI [1]: > 100 µM
- GI50 [2]: 69.6 µM
- TGI [2]: > 100 µM
- GI50 [3]: 67.2 µM
- TGI [3]: > 100 µM
- GI50 [4]: 38.7 µM
- TGI [4]: > 100 µM
- GI50 [5]: 19.4 µM
- TGI [5]: 91.4 µM
- GI50 [6]: 35.5 µM
- TGI [6]: 93.1 µM
- GI50 [7]: 56.2 µM
- TGI [7]: > 100 µM
- GI50 [8]: 70.8 µM
- TGI [8]: > 100 µM
- GI50 [9]: 67.6 µM
- TGI [9]: > 100 µM
- GI50 [10]: 37.8 µM
- TGI [10]: > 100 µM

Structure (SMILES): C=C(C)[C@@H]1CC[C@]2(C)[C@H](CC=C3[C@@H]4CC(C)(C)CC[C@]4(C(=O)OC)CC[C@]32C)[C@@]1(C)CC/C(N)=N/O
- GI50 [1]: 2.46 µM
- TGI [1]: 6.54 µM
- GI50 [2]: 1.86 µM
- TGI [2]: 3.67 µM
- GI50 [3]: 1.96 µM
- TGI [3]: 4.76 µM
- GI50 [4]: 1.91 µM
- TGI [4]: 7.81 µM
- GI50 [5]: 1.42 µM
- TGI [5]: 3.2 µM
- GI50 [6]: 1.78 µM
- TGI [6]: 3.95 µM
- GI50 [7]: 1.76 µM
- TGI [7]: 3.19 µM
- GI50 [8]: 3.66 µM
- TGI [8]: 18.6 µM
- GI50 [9]: 2.09 µM
- TGI [9]: 5.42 µM
- GI50 [10]: 2.05 µM
- TGI [10]: 4.48 µM

Structure (SMILES): COc1cccc2c1C(=O)c1c(O)c3c(c(O)c1C2=O)C[C@@](O)(C(=O)COC(=O)c1cccnc1)C[C@@H]3OC1CC(N)C(O)C(C)O1 (stereo partly specified)
- GI50 [1]: 0.168 µM
- TGI [1]: 1.01 µM
- GI50 [2]: 0.454 µM
- TGI [2]: 3.5 µM
- GI50 [3]: 0.155 µM
- TGI [3]: 1.53 µM
- GI50 [4]: 0.222 µM
- TGI [4]: 1.43 µM
- GI50 [5]: 0.0859 µM
- TGI [5]: 0.737 µM
- GI50 [6]: 0.232 µM
- TGI [6]: 0.529 µM
- GI50 [7]: 0.14 µM
- TGI [7]: 1.25 µM
- GI50 [8]: 0.149 µM
- TGI [8]: 0.845 µM
- GI50 [9]: 3.95 µM
- TGI [9]: > 100 µM
- GI50 [10]: 0.113 µM
- TGI [10]: 0.334 µM
